In paper PMC10385636, “Inhibition Mechanism of Chitooligosaccharide-Polyphenol Conjugates toward Polyphenoloxidase from Shrimp Cephalothorax” (Molecules, 2023):

System: T1, PPO (polyphenoloxidase from Pacific white shrimp cephalothorax)
T1 construct: gene proPO; crude native extract of cephalothorax powder; not purified; isoenzyme not identified (hemocyanin-derived activity not excluded); docking model 3WKY is not the assayed protein
Experiment: dopachrome absorbance at […] nm, Lineweaver-Burk
Assay type: biochemical, Penaeus vannamei
Conditions: no inhibitor (0 mg/mL); crude extract; pH 6.0, 45 °C per activity assay; unit as in table footnote but substrate was dosed 2.5-25 mM, so unit is doubtful (possibly mM)

N[C@@H](Cc1ccc(O)c(O)c1)C(=O)O [L-DOPA]
Concentration (mg/mL) / 0: 7.0695 mg/mL
